23 molecules from patent publication US20240383875A1, “Benzimidazole Pyridine Derivatives” (Hoffmann-La Roche Inc., priority 2022, published 2024) can be followed below.

As a reminder, the pIC50 is the negative decadic logarithm of the IC50, by convention in mol/L.

pIC50: −log10 of the molar value. Bounds are passed on as bounds.

Assay type in all cases: biochemical
The target in test [1] is SIK1 (Homo sapiens, UniProt P57059). Kind of test: Enzymatic activity assay SIK1, RapidFire mass spectrometry (phosphorylation of CHK-peptide). Conditions: RapidFire MS, inhibition of SIK1; read-out: SIK1 RF IC50. An outline of the steps: (§1)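 Compounds (12-point, 3-fold, generally 30 μM to 170 pM) were pre-incubated 30 min at ambient temperature with SIK1 (5 nM), SIK2 (0.5 nM) or SIK3 (1.5 nM) in HEPES pH 7.0/magnesium acetate buffer. CHK-peptide (10 μM solution) and ATP (100 μM solution) were then added for 45 min before formic acid quench.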

Test [2] deals with SIK2 (Homo sapiens, UniProt Q9H0K1). Kind of test: Enzymatic activity assay SIK2, RapidFire mass spectrometry (phosphorylation of CHK-peptide). Conditions: RapidFire MS, inhibition of SIK2; read-out: SIK2 RF IC50. The gist of the method:
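SIK2 (0.5 nM) in pH 7.0 HEPES buffer with 10 mM Mg acetate phosphorylates CHK-peptide (10 μM solution) with 100 μM ATP solution, 45 min ambient, then formic acid quench.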

Test [3] has as its target SIK3 (Homo sapiens, UniProt Q9Y2K2). The experiment in a line: Enzymatic activity assay SIK3, RapidFire mass spectrometry (phosphorylation of CHK-peptide). As to conditions: RapidFire MS, inhibition of SIK3; read-out: SIK3 RF IC50. The gist of the method: as §1

SIK1, sequence (P57059 whole entry): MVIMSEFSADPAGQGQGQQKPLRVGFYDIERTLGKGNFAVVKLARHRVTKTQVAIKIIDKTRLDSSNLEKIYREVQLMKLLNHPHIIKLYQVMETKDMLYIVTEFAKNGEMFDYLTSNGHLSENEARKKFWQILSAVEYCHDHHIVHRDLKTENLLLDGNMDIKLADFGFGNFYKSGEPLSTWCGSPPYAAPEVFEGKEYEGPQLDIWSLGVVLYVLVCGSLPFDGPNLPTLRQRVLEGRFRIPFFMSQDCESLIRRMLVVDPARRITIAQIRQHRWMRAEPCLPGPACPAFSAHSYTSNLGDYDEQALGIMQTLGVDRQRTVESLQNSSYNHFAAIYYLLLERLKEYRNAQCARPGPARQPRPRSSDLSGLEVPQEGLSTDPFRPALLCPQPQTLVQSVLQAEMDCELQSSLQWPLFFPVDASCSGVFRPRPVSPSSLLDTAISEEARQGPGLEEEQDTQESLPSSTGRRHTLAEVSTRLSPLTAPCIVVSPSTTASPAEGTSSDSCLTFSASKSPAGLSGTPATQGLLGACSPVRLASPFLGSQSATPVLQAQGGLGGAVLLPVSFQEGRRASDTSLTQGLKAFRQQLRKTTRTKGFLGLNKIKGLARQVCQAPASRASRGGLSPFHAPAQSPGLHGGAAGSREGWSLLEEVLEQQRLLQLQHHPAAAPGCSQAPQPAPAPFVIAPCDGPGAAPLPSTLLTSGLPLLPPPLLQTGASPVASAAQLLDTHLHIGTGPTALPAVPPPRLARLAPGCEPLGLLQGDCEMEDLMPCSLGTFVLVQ
SIK3, sequence (Q9Y2K2 whole entry): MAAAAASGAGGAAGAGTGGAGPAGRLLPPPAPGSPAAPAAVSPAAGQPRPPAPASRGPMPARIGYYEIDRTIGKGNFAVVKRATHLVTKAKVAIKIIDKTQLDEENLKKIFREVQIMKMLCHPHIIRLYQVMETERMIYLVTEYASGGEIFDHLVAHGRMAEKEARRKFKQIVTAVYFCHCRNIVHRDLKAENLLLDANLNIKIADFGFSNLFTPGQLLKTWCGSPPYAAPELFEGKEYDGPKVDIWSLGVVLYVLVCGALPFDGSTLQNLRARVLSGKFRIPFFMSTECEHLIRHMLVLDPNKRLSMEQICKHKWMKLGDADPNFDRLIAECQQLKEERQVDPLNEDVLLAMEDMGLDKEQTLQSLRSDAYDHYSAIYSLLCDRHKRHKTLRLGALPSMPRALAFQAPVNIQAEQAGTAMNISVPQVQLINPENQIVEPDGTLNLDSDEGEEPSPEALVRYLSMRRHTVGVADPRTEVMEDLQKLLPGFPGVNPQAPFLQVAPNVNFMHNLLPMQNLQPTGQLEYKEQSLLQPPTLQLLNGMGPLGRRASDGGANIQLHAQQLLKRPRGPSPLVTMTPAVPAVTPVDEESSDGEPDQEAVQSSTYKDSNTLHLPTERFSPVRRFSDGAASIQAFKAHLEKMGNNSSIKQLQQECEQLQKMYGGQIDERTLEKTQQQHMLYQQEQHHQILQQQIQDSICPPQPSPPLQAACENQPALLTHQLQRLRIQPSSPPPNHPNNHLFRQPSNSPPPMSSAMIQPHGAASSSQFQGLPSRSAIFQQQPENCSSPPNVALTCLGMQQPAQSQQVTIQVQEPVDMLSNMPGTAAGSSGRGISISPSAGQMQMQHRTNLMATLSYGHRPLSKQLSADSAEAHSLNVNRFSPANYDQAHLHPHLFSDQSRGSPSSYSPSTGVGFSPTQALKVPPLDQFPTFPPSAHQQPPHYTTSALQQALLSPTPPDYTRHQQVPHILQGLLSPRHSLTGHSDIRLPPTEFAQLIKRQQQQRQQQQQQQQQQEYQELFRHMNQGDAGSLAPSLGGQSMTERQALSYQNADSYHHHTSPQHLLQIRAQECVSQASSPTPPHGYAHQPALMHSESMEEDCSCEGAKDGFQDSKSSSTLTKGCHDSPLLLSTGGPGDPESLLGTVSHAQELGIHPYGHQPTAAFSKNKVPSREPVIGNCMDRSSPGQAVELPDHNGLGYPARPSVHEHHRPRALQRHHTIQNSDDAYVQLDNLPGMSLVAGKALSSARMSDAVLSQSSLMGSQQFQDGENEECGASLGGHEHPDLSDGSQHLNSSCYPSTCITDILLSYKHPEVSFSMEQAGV
SIK2, sequence (Q9H0K1 whole entry): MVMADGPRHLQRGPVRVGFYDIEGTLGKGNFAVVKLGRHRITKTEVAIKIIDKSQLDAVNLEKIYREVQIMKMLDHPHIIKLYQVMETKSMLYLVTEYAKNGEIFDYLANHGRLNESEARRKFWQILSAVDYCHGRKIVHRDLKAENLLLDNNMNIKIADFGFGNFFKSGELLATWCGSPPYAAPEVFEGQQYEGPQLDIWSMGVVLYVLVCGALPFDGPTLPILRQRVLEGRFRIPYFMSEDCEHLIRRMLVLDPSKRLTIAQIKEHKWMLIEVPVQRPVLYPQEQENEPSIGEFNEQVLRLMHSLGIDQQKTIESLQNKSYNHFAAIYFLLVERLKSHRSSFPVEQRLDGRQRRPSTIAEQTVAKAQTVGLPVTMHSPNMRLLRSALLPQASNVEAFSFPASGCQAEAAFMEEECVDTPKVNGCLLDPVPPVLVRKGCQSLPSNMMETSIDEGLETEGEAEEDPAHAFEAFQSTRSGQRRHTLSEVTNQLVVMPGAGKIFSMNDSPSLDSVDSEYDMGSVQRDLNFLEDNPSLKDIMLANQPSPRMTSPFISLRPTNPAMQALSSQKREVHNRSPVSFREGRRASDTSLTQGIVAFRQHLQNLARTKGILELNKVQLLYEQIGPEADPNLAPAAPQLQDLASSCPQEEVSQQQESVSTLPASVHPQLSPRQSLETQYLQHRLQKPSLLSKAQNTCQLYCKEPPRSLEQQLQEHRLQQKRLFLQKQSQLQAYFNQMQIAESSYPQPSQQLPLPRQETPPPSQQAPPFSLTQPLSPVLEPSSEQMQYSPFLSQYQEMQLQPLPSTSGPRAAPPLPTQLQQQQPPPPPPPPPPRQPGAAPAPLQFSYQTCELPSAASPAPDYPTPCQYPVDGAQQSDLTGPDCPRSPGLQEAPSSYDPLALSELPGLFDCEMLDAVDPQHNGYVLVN

For `Cc1ccc(Nc2ccc3c(c2)ncn3-c2ccc(C(C)O)c(-c3cc(C4CC4)ncc3C)n2)nn1` (stereo not drawn) [Example 289, 1-[2-(2-cyclopropyl-5-methyl-4-pyridyl)-6-[5-[(6-methylpyridazin-3-yl)amino]benzimidazol-1-yl]-3-pyridyl]ethanol], the negative-log IC50 (pIC50) in test [1] was 6.23; in test [2], 7.91; in test [3], 8.24.
Take `Cc1cnc(Nc2ccc3c(c2)ncn3-c2ccc(C(C)O)c(-n3nc(C#N)cc3C)n2)cn1` (stereo not drawn) [Example 82, 1-[3-(1-Hydroxyethyl)-6-[5-[(5-methylpyrazin-2-yl)amino]benzimidazol-1-yl]-2-pyridyl]-5-methyl-pyrazole-3-carbonitrile]: the negative logarithm of the IC50 (pIC50) in test [1] is 8.30; in test [2] it was 8.66; in test [3], 8.62.
Regarding `Cc1ccc(Nc2ccc3c(c2)ncn3-c2nc(-n3nc(C#N)cc3C)c(C(C)O)cc2Cl)nn1` (stereo not drawn) [Example 245, 1-[5-Chloro-3-(1-hydroxyethyl)-6-[5-[(6-methylpyridazin-3-yl)amino]benzimidazol-1-yl]-2-pyridyl]-5-methyl-pyrazole-3-carbonitrile; formic acid], the pIC50 in test [1] was 5.19; in test [2], 7.14; in test [3] it was 7.17.
For the molecule `Cc1ccc(Nc2ccc3ncn(-c4ccc(C(C)O)c(-n5nc(C(F)(F)F)c6c5CCNC6)n4)c3c2)nn1` (stereo not drawn) [Example 98, 1-[6-[6-[(6-Methylpyridazin-3-yl)amino]benzimidazol-1-yl]-2-[3-(trifluoromethyl)-4,5,6,7-tetrahydropyrazolo[4,3-c]pyridin-1-yl]-3-pyridyl]ethanol], the negative-log IC50 (pIC50) in test [1] is 8.30; in test [2] it was 8.38; in test [3] it was 7.87.
For the molecule `Cc1ccc(Nc2ccc3c(c2)ncn3-c2ccc(CO)c(-n3nc(C#N)cc3C)n2)nn1` [Example 270, 5-Methyl-1-[3-methylol-6-[5-[(6-methylpyridazin-3-yl)amino]benzimidazol-1-yl]-2-pyridyl]pyrazole-3-carbonitrile; formic acid], the pIC50 was 6.87 in test [1], 9.10 in test [2] and 9.70 in test [3].
Take `COc1cc2ncn(-c3ccc(CO)c(NCCCCCO)n3)c2cc1OC` [Example 32, 5-((6-(5,6-Dimethoxy-1H-benzo[d]imidazol-1-yl)-3-(hydroxymethyl)pyridin-2-yl)amino)pentan-1-ol]: the pIC50 in test [1] is 6.43; in test [2] it was 6.59; in test [3], 5.86.
Regarding `Cc1cc(C#N)nn1-c1nc(-n2cnc3cc(F)c(Nc4cc5c(nn4)CCC5)cc32)ccc1C(C)O` (stereo not drawn) [Example 381, 1-[6-[6-(6,7-dihydro-5~{H}-cyclopenta[c]pyridazin-3-ylamino)-5-fluoro-benzimidazol-1-yl]-3-(1-hydroxyethyl)-2-pyridyl]-5-methyl-pyrazole-3-carbonitrile], the values for the pIC50 in test [1], in test [2] and in test [3] were 7.26, 7.49 and 6.71, respectively.
On the same counts, the results for `Cc1ccc(Nc2ccc3c(c2)ncn3-c2ccc(C(C)O)c(-c3cncc(C#N)c3)n2)nn1` (stereo not drawn) [Example 118, 5-[3-(1-Hydroxyethyl)-6-[5-[(6-methylpyridazin-3-yl)amino]benzimidazol-1-yl]-2-pyridyl]pyridine-3-carbonitrile; formic acid] are 5.56, 7.44 and 8.15.
For the molecule `Cc1cc(C#N)nn1-c1nc(-n2cnc3cc(N4CC[C@@H](O)C4)ccc32)ccc1C(C)O` (stereo partly drawn) [Example 77, 1-[3-(1-Hydroxyethyl)-6-[5-[(3R)-3-hydroxypyrrolidin-1-yl]benzimidazol-1-yl]-2-pyridyl]-5-methyl-pyrazole-3-carbonitrile; formic acid], the pIC50 in test [1] was 7.55; in test [2] it was 8.00; in test [3], 7.80.
On the same counts, the results for `CC(O)c1ccc(-n2cnc3cc(OCCN4CCOCC4)ccc32)nc1Oc1ccccc1` (stereo not drawn) [Example 53, 1-[6-[5-(2-Morpholinoethoxy)benzimidazol-1-yl]-2-phenoxy-3-pyridyl]ethanol] are 5.67, 6.49 and 6.39.
Consider `Cc1ccc(Nc2ccc3c(c2)ncn3-c2ccc(C(C)O)c(-n3cc(C)c(C#N)n3)n2)nn1` (stereo not drawn) [Example 170, 1-[3-(1-Hydroxyethyl)-6-[5-[(6-methylpyridazin-3-yl)amino]benzimidazol-1-yl]-2-pyridyl]-4-methyl-pyrazole-3-carbonitrile; formic acid], for which the negative logarithm of the IC50 (pIC50) is 6.67 in test [1], 8.68 in test [2] and 9.00 in test [3].
On to `Cc1ccc(Nc2cc3ncn(-c4ccc(C(C)O)c(-c5cc(OC(F)F)ncc5C)n4)c3cc2F)nn1` (stereo not drawn) [Example 346, 1-[2-[2-(difluoromethoxy)-5-methyl-4-pyridyl]-6-[6-fluoro-5-[(6-methylpyridazin-3-yl)amino]benzimidazol-1-yl]-3-pyridyl]ethanol], for which the negative logarithm of the IC50 (pIC50) is 6.88 in test [1], 9.00 in test [2] and 8.85 in test [3].
As to `Cc1cc(C#N)nn1-c1nc(-n2cnc3ccc(CN4CCCCC4=O)cc32)ccc1C(C)O` (stereo not drawn) [Example 215, 1-[3-(1-Hydroxyethyl)-6-[6-[(2-oxo-1-piperidyl)methyl]benzimidazol-1-yl]-2-pyridyl]-5-methyl-pyrazole-3-carbonitrile], the pIC50 in test [1] is 6.46; in test [2], 6.43; in test [3], 5.73.
On to `Cc1ccc(Nc2ccc3c(c2)ncn3-c2ccc(C(C)O)c(N3CCC(C(F)F)C3)n2)nn1` (stereo not drawn) [Example 298, 1-[2-[3-(difluoromethyl)pyrrolidin-1-yl]-6-[5-[(6-methylpyridazin-3-yl)amino]benzimidazol-1-yl]-3-pyridyl]ethanol], for which the pIC50 is 5.82 in test [1], 7.56 in test [2] and 8.52 in test [3].
In the same order, the values of `Cc1ccc(Nc2cc3ncn(-c4ccc(C(C)O)c(-n5nc(Cl)cc5C)n4)c3cc2F)nn1` (stereo not drawn) [Example 355, 1-[2-(3-chloro-5-methyl-pyrazol-1-yl)-6-[6-fluoro-5-[(6-methylpyridazin-3-yl)amino]benzimidazol-1-yl]-3-pyridyl]ethanol] are 5.98, 8.28 and 8.44.
On the same counts, the results for `Cc1ccc(Nc2cc3c(cc2CC2COC2)ncn3-c2ccc(C(C)O)c(-n3nc(OC(F)F)cc3C)n2)nn1` (stereo not drawn) [Example 406, 1-[2-[3-(difluoromethoxy)-5-methyl-pyrazol-1-yl]-6-[6-[(6-methylpyridazin-3-yl)amino]-5-(oxetan-3-ylmethyl)benzimidazol-1-yl]-3-pyridyl]ethanol] are 7.33, 7.87 and 6.84.
With `Cc1nn(CC(F)(F)F)cc1-c1nc(-n2cnc3cc(Oc4ccc(CN5CCOCC5)nn4)ccc32)ccc1C(C)O` (stereo not drawn) [Example 350, 1-[2-[3-methyl-1-(2,2,2-trifluoroethyl)pyrazol-4-yl]-6-[5-[6-(morpholinomethyl)pyridazin-3-yl]oxybenzimidazol-1-yl]-3-pyridyl]ethanol], the figures for the pIC50 in test [1], in test [2] and in test [3] were 5.42, 7.17 and 7.22, respectively.
Take `COc1cc2ncn(-c3ccc([C@H](C)O)c(-c4ccc(C#N)cc4)n3)c2cc1OC` [Example 39, (S)-4-(6-(5,6-Dimethoxy-1H-benzo[d]imidazol-1-yl)-3-(l-hydroxyethyl)pyridin-2-yl)benzonitrile]: the pIC50 in test [1] is 6.82; in test [2], 7.60; in test [3] it was 6.75.
With `CNc1ncccc1-c1nc(-n2cnc3cc(Nc4ccc(C)nn4)ccc32)ccc1C(C)O` (stereo not drawn) [Example 179, 1-[2-[2-(Methylamino)-3-pyridyl]-6-[5-[(6-methylpyridazin-3-yl)amino]benzimidazol-1-yl]-3-pyridyl]ethanol; formic acid], the results for the negative-log IC50 (pIC50) in test [1], in test [2] and in test [3] were below 4.52, 6.38 and 7.13, respectively.
Turning to `Cc1ccc(Nc2ccc3c(c2)ncn3-c2ccc(C(C)O)c(-n3nc(C)cc3C)n2)nn1` (stereo not drawn) [Example 108, 1-[2-(3,5-Dimethylpyrazol-1-yl)-6-[5-[(6-methylpyridazin-3-yl)amino]benzimidazol-1-yl]-3-pyridyl]ethanol; formic acid], the values for the negative logarithm of the IC50 (pIC50) in test [1], in test [2] and in test [3] were 5.42, 7.37 and 8.19, respectively.
For `Cc1cc(C(=O)N(C)C)c(Nc2ccc3c(c2)ncn3-c2ccc(CO)c(-n3nc(C(F)F)cc3C(F)F)n2)nn1` [Example 348, 3-[[1-[6-[3,5-bis(difluoromethyl)pyrazol-1-yl]-5-(hydroxymethyl)-2-pyridyl]benzimidazol-5-yl]amino]-N,N,6-trimethyl-pyridazine-4-carboxamide], the pIC50 in test [1] was 4.84; in test [2], 7.49; in test [3], 7.43.
On to `Cc1cc(C#N)nn1-c1nc(-n2cnc3cc(C#N)ccc32)ccc1C(C)O` (stereo not drawn) [Example 263, 1-[6-(3-Cyano-5-methyl-pyrazol-1-yl)-5-(1-hydroxyethyl)-2-pyridyl]benzimidazole-5-carbonitrile], for which the negative-log IC50 (pIC50) is 6.48 in test [1], 6.84 in test [2] and 6.80 in test [3].
Take `Cc1ccc(Nc2cc3ncn(-c4ccc([C@@H](C)O)c(-n5nc(OC(F)F)cc5C)n4)c3cc2F)nn1` [Example 375, (1R)-1-[2-[3-(difluoromethoxy)-5-methyl-pyrazol-1-yl]-6-[6-fluoro-5-[(6-methylpyridazin-3-yl)amino]benzimidazol-1-yl]-3-pyridyl]ethanol]: the pIC50 in test [1] is 6.00; in test [2], 8.22; in test [3], 8.06.
